Laboratory results from ChEMBL document CHEMBL2203015, “Synthesis and biological evaluation of 5-aryloxypyrazole derivatives bearing a rhodanine-3-aromatic acid as potential antimicrobial agents” (Bioorg Med Chem Lett, 2012).
≈ marks a conversion by molar mass, not a printed value.

Experiments:
Type in all cases: functional
Staphylococcus aureus [1] = experiment: Antibacterial activity against quinolone-resistant Staphylococcus aureus CCARM 3519 incubated for 24 hrs serial dilution method; details: CCARM 3519, 24 h
Staphylococcus aureus [2] = experiment: Antibacterial activity against quinolone-resistant Staphylococcus aureus CCARM 3505 incubated for 24 hrs serial dilution method; details: CCARM 3505, 24 h
Staphylococcus aureus [3] = experiment: Antibacterial activity against multidrug-resistant Staphylococcus aureus CCARM 3506 incubated for 24 hrs serial dilution method; details: CCARM 3506, 24 h
Staphylococcus aureus [4] = experiment: Antibacterial activity against multidrug-resistant Staphylococcus aureus CCARM 3167 incubated for 24 hrs serial dilution method; details: CCARM 3167, 24 h
Escherichia coli = experiment: Antibacterial activity against Escherichia coli 1356 incubated for 24 hrs serial dilution method; details: Escherichia coli, 1356, 24 h
Staphylococcus aureus [5] = experiment: Antibacterial activity against Staphylococcus aureus KCTC 503 incubated for 24 hrs serial dilution method; details: KCTC 503, 24 h
Staphylococcus aureus [6] = experiment: Antibacterial activity against Staphylococcus aureus KCTC 209 incubated for 24 hrs serial dilution method; details: KCTC 209, 24 h
Staphylococcus aureus [7] = experiment: Antibacterial activity against Staphylococcus aureus RN 4220 incubated for 24 hrs serial dilution method; details: RN 4220, 24 h

Row | Compound | MIC (Staphylococcus aureus [1]) | MIC (Staphylococcus aureus [2]) | MIC (Staphylococcus aureus [3]) | MIC (Staphylococcus aureus [4]) | MIC (Escherichia coli) | MIC (Staphylococcus aureus [5]) | MIC (Staphylococcus aureus [6]) | MIC (Staphylococcus aureus [7])
1 | Cc1cccc(Oc2c(/C=C3\SC(=S)N([C@@H](Cc4ccc(O)cc4)C(=O)O)C3=O)c(C)nn2-c2ccccc2)c1 | 16 µg/mL (≈ 28 µM) | 16 µg/mL (≈ 28 µM) | 8 µg/mL (≈ 14 µM) | 16 µg/mL (≈ 28 µM) | > 64 µg/mL | > 64 µg/mL | > 64 µg/mL | 16 µg/mL (≈ 28 µM)
2 | CCn1cc(C(=O)O)c(=O)c2cc(F)c(N3CCNCC3)cc21 [NORFLOXACIN] | > 64 µg/mL | > 64 µg/mL | 4 µg/mL (≈ 12.5 µM) | 8 µg/mL (≈ 25.1 µM) | > 16 µg/mL | 2 µg/mL (≈ 6.26 µM) | 2 µg/mL (≈ 6.26 µM) | 2 µg/mL (≈ 6.26 µM)
3 | Cc1nn(-c2ccccc2)c(Oc2ccc(Cl)cc2Cl)c1/C=C1\SC(=S)N([C@@H](Cc2ccc(O)cc2)C(=O)O)C1=O | 8 µg/mL (≈ 12.8 µM) | 8 µg/mL (≈ 12.8 µM) | 8 µg/mL (≈ 12.8 µM) | 8 µg/mL (≈ 12.8 µM) | > 64 µg/mL | > 64 µg/mL | > 64 µg/mL | 8 µg/mL (≈ 12.8 µM)
4 | Cc1nn(-c2ccccc2)c(Oc2ccccc2)c1/C=C1\SC(=S)N([C@@H](Cc2ccc(O)cc2)C(=O)O)C1=O |  |  |  |  | > 64 µg/mL | > 64 µg/mL | > 64 µg/mL | > 32 µg/mL
5 | Cc1nn(-c2ccccc2)c(Oc2cccc(Cl)c2)c1/C=C1\SC(=S)N([C@@H](Cc2ccc(O)cc2)C(=O)O)C1=O | 16 µg/mL (≈ 27 µM) | 32 µg/mL (≈ 54 µM) | 16 µg/mL (≈ 27 µM) | 8 µg/mL (≈ 13.5 µM) | > 64 µg/mL | > 64 µg/mL | > 64 µg/mL | 16 µg/mL (≈ 27 µM)
6 | Cc1nn(-c2ccccc2)c(Oc2c(Cl)cccc2Cl)c1/C=C1\SC(=S)N([C@@H](Cc2ccc(O)cc2)C(=O)O)C1=O | 16 µg/mL (≈ 25.5 µM) | 16 µg/mL (≈ 25.5 µM) | 8 µg/mL (≈ 12.8 µM) | 8 µg/mL (≈ 12.8 µM) | > 64 µg/mL | > 64 µg/mL | > 64 µg/mL | 16 µg/mL (≈ 25.5 µM)
7 | Cc1ccccc1Oc1c(/C=C2\SC(=S)N([C@@H](Cc3ccc(O)cc3)C(=O)O)C2=O)c(C)nn1-c1ccccc1 | 32 µg/mL (≈ 56 µM) | 32 µg/mL (≈ 56 µM) | 16 µg/mL (≈ 28 µM) | 16 µg/mL (≈ 28 µM) | > 64 µg/mL | > 64 µg/mL | > 64 µg/mL | 16 µg/mL (≈ 28 µM)
8 | Cc1nn(-c2ccccc2)c(Oc2ccccc2Cl)c1/C=C1\SC(=S)N([C@@H](Cc2ccc(O)cc2)C(=O)O)C1=O |  |  |  |  | > 64 µg/mL | > 64 µg/mL | > 64 µg/mL | > 32 µg/mL
9 | Cc1nn(-c2ccccc2)c(Oc2ccc(Cl)cc2)c1/C=C1\SC(=S)N([C@@H](Cc2ccc(O)cc2)C(=O)O)C1=O | 8 µg/mL (≈ 13.5 µM) | 16 µg/mL (≈ 27 µM) | 8 µg/mL (≈ 13.5 µM) | 16 µg/mL (≈ 27 µM) | > 64 µg/mL | > 64 µg/mL | > 64 µg/mL | 16 µg/mL (≈ 27 µM)
10 | Cc1cccc(Oc2c(/C=C3\SC(=S)N([C@@H](Cc4c[nH]c5ccccc45)C(=O)O)C3=O)c(C)nn2-c2ccccc2)c1 | 8 µg/mL (≈ 13.5 µM) | 8 µg/mL (≈ 13.5 µM) | 4 µg/mL (≈ 6.73 µM) | 4 µg/mL (≈ 6.73 µM) | > 64 µg/mL | > 64 µg/mL | > 64 µg/mL | 4 µg/mL (≈ 6.73 µM)
11 | Cc1ccc(Oc2c(/C=C3\SC(=S)N([C@@H](Cc4ccc(O)cc4)C(=O)O)C3=O)c(C)nn2-c2ccccc2)cc1 | 16 µg/mL (≈ 28 µM) | 16 µg/mL (≈ 28 µM) | 8 µg/mL (≈ 14 µM) | 8 µg/mL (≈ 14 µM) | > 64 µg/mL | > 64 µg/mL | > 64 µg/mL | 16 µg/mL (≈ 28 µM)
12 | Cc1nn(-c2ccccc2)c(Oc2ccc(F)cc2)c1/C=C1\SC(=S)N([C@@H](Cc2c[nH]c3ccccc23)C(=O)O)C1=O | 8 µg/mL (≈ 13.4 µM) | 8 µg/mL (≈ 13.4 µM) | 4 µg/mL (≈ 6.68 µM) | 4 µg/mL (≈ 6.68 µM) | > 64 µg/mL | > 64 µg/mL | > 64 µg/mL | 8 µg/mL (≈ 13.4 µM)
13 | COc1ccc(Oc2c(/C=C3\SC(=S)N([C@@H](Cc4c[nH]c5ccccc45)C(=O)O)C3=O)c(C)nn2-c2ccccc2)cc1 | 8 µg/mL (≈ 13.1 µM) | 8 µg/mL (≈ 13.1 µM) | 4 µg/mL (≈ 6.55 µM) | 4 µg/mL (≈ 6.55 µM) | > 64 µg/mL | > 64 µg/mL | > 64 µg/mL | 8 µg/mL (≈ 13.1 µM)
14 | Cc1nn(-c2ccccc2)c(Oc2ccccc2)c1/C=C1\SC(=S)N([C@@H](Cc2c[nH]c3ccccc23)C(=O)O)C1=O | 8 µg/mL (≈ 13.8 µM) | 8 µg/mL (≈ 13.8 µM) | 8 µg/mL (≈ 13.8 µM) | 8 µg/mL (≈ 13.8 µM) | > 64 µg/mL | > 64 µg/mL | > 64 µg/mL | 8 µg/mL (≈ 13.8 µM)
15 | Cc1nn(-c2ccccc2)c(Oc2ccc(Br)cc2)c1/C=C1\SC(=S)N([C@@H](Cc2ccc(O)cc2)C(=O)O)C1=O | 8 µg/mL (≈ 12.6 µM) | 8 µg/mL (≈ 12.6 µM) | 8 µg/mL (≈ 12.6 µM) | 8 µg/mL (≈ 12.6 µM) | > 64 µg/mL | > 64 µg/mL | > 64 µg/mL | 8 µg/mL (≈ 12.6 µM)
